≈ marks a conversion by molar mass, not a printed value.
Assays:
Format in all cases: cell-based
fresh morning saliva = assay: In-vitro test for reducing bad breath (liquid medium inoculated with fresh morning saliva, smelt by a test panel); details: for formation of bad breath / smell after incubation: 0.1%
Experimental: This test is based on the work of Goldberg and Rosenberg (Production of Oral Malodor in an in vitro System, S. Goldberg and M. Rosenberg, pp. 143-150, in: Bad Breath—A multidisciplinary Approach, Eds: D. van Steenberghe, M. Rosenberg, Leuven University Press, 1996) and was adapted for the purposes of better reproducibility.
A sterile liquid medium that is inoculated with fresh morning saliva is incubated for a few days at 37° C. and then smelt by a test panel.
An intensive typical smell of bad breath had formed. Non-inoculated controls only have a weak to moderate smell of bad breath.
Triclosan® in a concentration of 0.05% was added as control for the tests.
The minimum effective concentrations of various compounds of the Formula 1 or of the Formula 1A at which no smell could be detected are shown hereinafter: […]

Candida albicans = assay: Effect against germs not connected with bad breath; details: 1,000 ppm
Aspergillus niger = assay: Effect against germs not connected with bad breath; details: 1,000 ppm
Escherichia coli = assay: Effect against germs not connected with bad breath; details: 1,000 ppm
Fusobacterium nucleatum = assay: Minimal inhibiting concentration, series dilution test
Experimental: (§1) The minimal inhibiting concentration (MIC) was determined by way of example for 2-(benzoylamino) benzoic acid (Compound 27) in a series dilution test against various germs found in the mouth.

Prevotella intermedia = assay: as above
Experimental: as §1

Staphylococcus aureus = assay: as above; details: bactericide
Experimental: as §1

Veillonella parvula = assay: as above; details: bactericide
Experimental: as §1

[1] = medium inoculated with fresh morning saliva, incubated a few days at 37° C., test panel

Compound	minimum effective concentration at which no smell could be detected (fresh morning saliva; [1]) [%]	other results
O=C(/C=C/c1ccc(O)c(O)c1)Nc1ccccc1C(=O)O [Compound 2, 2-{[(2E)-3-(3,4-dihydroxyphenyl)prop-2-enoyl]amino}benzoic acid]	0.005	–
O=C(/C=C/c1ccc(O)c(O)c1)Nc1ccc(O)cc1C(=O)O [Compound 3, 5-hydroxy-2-{[(2E)-3-(3,4-dihydroxyphenyl)prop-2-enoyl]amino}benzoic acid]	0.0025	–
COc1cc(/C=C/C(=O)Nc2ccc(O)cc2C(=O)O)ccc1O [Compound 4, 5-hydroxy-2-{[(2E)-3-(4-hydroxy-3-methoxyphenyl)prop-2-enoyl]amino}benzoic acid]	0.01	minimum effective concentration at which no smell could be detected (fresh morning saliva; same value given in ppm): (=100 ppm)
O=C(/C=C/c1ccc(O)cc1)Nc1ccc(O)cc1C(=O)O [Compound 7, 5-hydroxy-2-{[(2E)-3-(4-hydroxyphenyl)prop-2-enoyl]amino}benzoic acid]	0.005	minimum effective concentration at which no smell could be detected (fresh morning saliva; same value given in ppm): (=50 ppm)
O=C(CCc1ccc(O)cc1)Nc1ccccc1C(=O)O [Compound 8, 2-{[3-(4-hydroxyphenyl)propanoyl]amino}benzoic acid]	0.005	–
COc1cc(/C=C/C(=O)Nc2ccccc2C(=O)O)ccc1O [Compound 9, 2-{[(2E)-3-(4-hydroxy-3-methoxyphenyl)prop-2-enoyl]amino}benzoic acid]	0.005	–
O=C(/C=C/c1ccc(O)cc1)Nc1ccccc1C(=O)O [Compound 10, 2-{[(2E)-3-(4-hydroxyphenyl)prop-2-enoyl]amino}benzoic acid]	0.0025	minimum effective concentration at which no smell could be detected (fresh morning saliva; same value given in ppm): (=25 ppm); effect against the germ (Candida albicans): did not have any effect; effect against the germ (Aspergillus niger): did not have any effect; effect against the germ (Escherichia coli): did not have any effect
O=C(/C=C/c1ccccc1)Nc1ccc(O)cc1C(=O)O [Compound 12, 5-Hydroxy-2-{[(2E)-3-phenylprop-2-enoyl]amino}benzoic acid]	0.0025	–
COc1ccc(/C=C/C(=O)Nc2ccc(O)cc2C(=O)O)cc1OC [Compound 13, 5-Hydroxy-2-{[(2E)-3-(3,4-dimethoxyphenyl)prop-2-enoyl]amino}benzoic acid]	0.01	–
O=C(Nc1ccccc1C(=O)O)c1ccc(O)c(O)c1 [Compound 20, 2-[(3,4-dihydroxybenzoyl)amino]benzoic acid]	0.005	–
COc1ccc(C(=O)Nc2ccccc2C(=O)O)cc1O [Compound 23, 2-[(3-hydroxy-4-methoxybenzoyl)amino]benzoic acid]	0.0025	–
O=C(Nc1ccccc1C(=O)O)c1ccc(O)cc1 [Compound 24, 2-[(4-hydroxybenzoyl)amino]benzoic acid]	0.001	–
COc1cc(C(=O)Nc2ccccc2C(=O)O)ccc1O [Compound 25, 2-[(4-hydroxy-3-methoxybenzoyl)amino]benzoic acid]	0.001	–
O=C(Nc1ccccc1C(=O)O)c1ccc(O)cc1O [Compound 26, 2-[(2,4-dihydroxybenzoyl)amino]benzoic acid]	0.0025	–
O=C(Nc1ccccc1C(=O)O)c1ccccc1 [Compound 27, 2-(benzoylamino)-benzoic acid]	0.0025	smell after incubation (fresh morning saliva; 0.001 wt. %): a non unpleasant smell could be detected, which did not bear any resemblance to bad breath; smell after incubation (fresh morning saliva; 0.0025 wt. %): no smell; MIC (Fusobacterium nucleatum; bactericide): 1000 µg/mL (≈ 4150 µM); MIC (Fusobacterium nucleatum; bacteriostatic): 500 µg/mL (≈ 2070 µM); MIC (Prevotella intermedia; bactericide): 1000 µg/mL (≈ 4150 µM); MIC (Prevotella intermedia; bacteriostatic): 500 µg/mL (≈ 2070 µM); MIC (Staphylococcus aureus): 500 µg/mL (≈ 2070 µM); MIC (Veillonella parvula): 250 µg/mL (≈ 1040 µM)
O=C(Nc1ccccc1C(=O)O)c1cccc(O)c1 [Compound 28, 2-[(3-hydroxybenozyl)amino]benzoic acid]	0.0005	minimum effective concentration at which no smell could be detected (fresh morning saliva; same value given in ppm): (=5 ppm)
O=C(Nc1ccccc1C(=O)O)c1ccccc1O [Compound 29, 2-[(2-hydroxybenzoyl)amino]benzoic acid]	0.0025	–
O=C(Nc1cc(O)ccc1C(=O)O)c1ccc(O)cc1 [Compound 75, 4-hydroxy-2-[(4-hydroxybenzoyl]amino}benzoic acid]	0.01	–
O=C(Nc1ccccc1)c1ccccc1O [Compound 100, Salicylanilide]	0.0025	–
COc1ccc(/C=C/C(=O)Nc2ccccc2C(=O)O)cc1 [Compound 101, 2-{[(2E)-3-(4-methoxyphenyl)prop-2-enoyl]amino}benzoic acid]	0.0025	–
O=C(/C=C/c1ccccc1)Nc1ccccc1C(=O)O [Compound 102, 2-{[(2E)-3-phenylprop-2-enoyl]amino}benzoic acid]	0.001	minimum effective concentration at which no smell could be detected (fresh morning saliva; same value given in ppm): (=10 ppm)
Oc1cc(Cl)ccc1Oc1ccc(Cl)cc1Cl [Triclosan, reference compound]	–	smell after incubation (fresh morning saliva; 0.05%, control): the same smell as the non-inoculated flasks
C=CCc1ccc(O)c(OC)c1 [eugenol, reference compound]	–	formation of bad breath / smell after incubation (fresh morning saliva): suppressed the formation of bad breath
Cc1ccc(C(C)C)c(O)c1 [thymol, reference compound]	–	formation of bad breath / smell after incubation (fresh morning saliva): suppressed the formation of bad breath

Reference: patent US20080008660A1, “Antimicrobially active compounds for treating bad breath” (Symrise GmbH & Co. KG, priority 2006, published 2008)
